From patent EP0471516A1, “Tricyclic heterocyclic derivatives” (IMPERIAL CHEMICAL INDUSTRIES PLC, priority 1990, dated 1992)

Legend:
topoisomerase-II = experiment: Test (a): in vitro topoisomerase-II interaction assay, DNA fragmentation of labelled pUC18 plasmid; type: biochemical, human; conditions: test compound at 100 µM; for activity in Test (a): DNA fragmentation with topoisomerase-II from HeLa cells
Procedure: (a) An in vitro assay which determines the ability of a test compound to interact with the enzyme topoisomerase-II, obtained in partially purified form from human HeLa cervical carcinoma cells grown in cell culture. Aliquots of the topoisomerase-II so obtained are added to a mixture of plasmid DNA [0.5 ng of a linearised pUC18 plasmid labelled with [³²P]-ATP], test compound (dissolved in dimethylsulphoxide) and a conventional buffer solution comprising essential salts, bovine serum albumin, ATP, EDTA and 2-mercaptoethanol. The mixture is incubated at 30°C for 10 minutes. Sodium dodecylsulphate and proteinase K are added in turn to give final concentrations of 1% w/v and 2 mg/ml respectively and the mixture is heated to 45°C to effect proteolysis. The resultant mixture is analysed by electrophoresis on a polyacrylamide gel at pH 8.3 and 450 volts for one hour. Thereafter the gel is fixed, dried and autoradiogrammed to determine the extent of DNA fragmentation.

[1] = tested on: small-cell lung cancer cell line N417A; experiment: Test (b): growth inhibition of N417A cells in culture, tetrazolium salt method; type: cell-based; conditions: read-out: IC₅₀
Excerpt: (b) Any assay which determines the ability of a test compound to inhibit the growth of the small-cell lung cancer cell line N417A in cell culture. The test is similar to that described by T. Mosmann (J. Immunol. Meths., 1983, 65, 55-63) but using the tetrazolium salt method of J. Carmichael et al. (J. Cancer Res., 1987, 47, 936-942) to assess the reductive capacity of any viable cells.

| etoposide concentration giving activity equivalent to the test compound in Test (a) (topoisomerase-II) [µM] | activity in Test (a) (topoisomerase-II) | IC50 [1] [µM] | SMILES |
| --- | --- | --- | --- |
| 100 | significant activity | 0.8 | COc1cc(Cn2c3ccccc3c(=O)c3ccc(S(=O)(=O)CCN(C)C)cc32)cc(OC)c1O [3-(2-dimethylaminoethylsulphonyl)-10-(4-hydroxy-3,5-dimethoxybenzyl)-9,10-dihydroacridin-9-one] |
| 25 | significant activity | 0.4 | COc1cc(Cn2c3ccccc3c(=O)c3ccc(Cl)cc32)cc(OC)c1O [3-chloro-10-(4-hydroxy-3,5-dimethoxybenzyl)-9,10-dihydroacridin-9-one] |
| 50 | significant activity | 3.7 | COc1cc(Cn2c3ccccc3c(=O)c3cccnc32)cc(OC)c1O [10-(4-hydroxy-3,5-dimethoxybenzyl)-5,10-dihydrobenzo[b][1,8]naphthyridin-5-one] |
